How the values were obtained:
Cannabinoid receptor 1 [1] = molecular target: T1, Cannabinoid receptor 1 (Homo sapiens, UniProt P21554); test: Inverse agonist activity at human CB1 receptor expressed in HEK293 EBNA cells by [35S]GTPgammaS incorporation assay; format: functional, cell-based
Homo sapiens = organism: Homo sapiens; test: Selectivity ratio, Ki for human CB2 receptor to Ki for human CB1 receptor
Cannabinoid receptor 2 = Cannabinoid receptor 2 (Homo sapiens, UniProt P34972); test: Displacement of radioligand from human CB2 receptor expressed in HEK293 cells; format: cell-based
Cannabinoid receptor 1 [2] = molecular target: T1, Cannabinoid receptor 1; test: Displacement of radioligand from human CB1 receptor expressed in HEK293 cells; format: cell-based
Cannabinoid receptor 1 [3] = molecular target: T1, Cannabinoid receptor 1; test: Displacement of radioligand from human CB1 receptor expressed in HEK293 cells at 10 uM; format: cell-based

T1 sequence (P21554 whole entry): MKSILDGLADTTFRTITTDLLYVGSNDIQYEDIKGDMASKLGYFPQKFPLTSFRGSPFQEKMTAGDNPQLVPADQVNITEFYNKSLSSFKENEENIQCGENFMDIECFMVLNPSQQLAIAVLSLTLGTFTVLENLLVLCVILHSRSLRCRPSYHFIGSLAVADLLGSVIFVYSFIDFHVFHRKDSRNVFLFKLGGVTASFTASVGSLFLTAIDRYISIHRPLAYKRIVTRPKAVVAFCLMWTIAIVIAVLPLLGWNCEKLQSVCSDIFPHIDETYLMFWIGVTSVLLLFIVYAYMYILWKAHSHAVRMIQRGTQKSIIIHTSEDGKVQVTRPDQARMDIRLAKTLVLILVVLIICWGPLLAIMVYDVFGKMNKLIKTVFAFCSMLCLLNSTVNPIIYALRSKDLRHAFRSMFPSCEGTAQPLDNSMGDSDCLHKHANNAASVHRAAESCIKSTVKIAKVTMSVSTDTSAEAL
Cannabinoid receptor 2, sequence (P34972 whole entry): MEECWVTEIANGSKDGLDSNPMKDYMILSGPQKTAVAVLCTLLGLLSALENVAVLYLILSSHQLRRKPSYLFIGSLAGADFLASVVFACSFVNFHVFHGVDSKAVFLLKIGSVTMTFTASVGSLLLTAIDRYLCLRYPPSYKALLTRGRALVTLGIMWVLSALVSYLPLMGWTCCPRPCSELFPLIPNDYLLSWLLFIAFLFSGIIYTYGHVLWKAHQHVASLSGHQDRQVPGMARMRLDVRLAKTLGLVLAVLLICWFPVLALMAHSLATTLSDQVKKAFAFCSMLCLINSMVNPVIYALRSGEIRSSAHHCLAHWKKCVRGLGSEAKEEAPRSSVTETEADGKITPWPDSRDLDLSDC

Structure (SMILES)	EC50 (Cannabinoid receptor 1 [1]) [nM]	Ratio Ki (Homo sapiens)	Ki (Cannabinoid receptor 2) [nM]	Ki (Cannabinoid receptor 1 [2]) [nM]	inhibition (Cannabinoid receptor 1 [3]) [%]
Cc1c(C(=O)N(C)CCC#N)oc2ccc(S(=O)(=O)N3CC(C)CC(C)C3)cc12 (stereo not drawn)	–	–	–	–	50
CCN(Cc1ccccc1)C(=O)c1oc2ccc(S(=O)(=O)N3CC(C)CC(C)C3)cc2c1C (stereo not drawn)	435	34	3100	92	98
Cc1c(C(=O)N(C)Cc2ccccc2)oc2ccc(S(=O)(=O)N3CC(C)CC(C)C3)cc12 (stereo not drawn)	–	112	6600	59	93
Cc1c(C(=O)N2CCCCCC2)oc2ccc(S(=O)(=O)N3CC(C)CC(C)C3)cc12 (stereo not drawn)	–	25	4900	193	90
COc1ccc(Cl)cc1NC(=O)c1oc2ccc(S(=O)(=O)N3CC(C)CC(C)C3)cc2c1C (stereo not drawn)	–	–	–	–	12
Cc1c(C(=O)N(C)Cc2ccccc2)oc2ccc(S(=O)(=O)N3CCCC3)cc12	–	–	–	–	20
Cc1ccc(CNC(=O)c2oc3ccc(S(=O)(=O)N4CC(C)CC(C)C4)cc3c2C)cc1 (stereo not drawn)	–	242	19100	79	93
Cc1c(C(=O)N2CCN(C)CC2)oc2ccc(S(=O)(=O)N3CC(C)CC(C)C3)cc12 (stereo not drawn)	–	–	–	–	27
Cc1c(C(=O)NC2CCCCC2)oc2ccc(S(=O)(=O)N3CC(C)CC(C)C3)cc12 (stereo not drawn)	–	161	17400	108	95
CCN(CC)C(=O)c1oc2ccc(S(=O)(=O)N3CC(C)CC(C)C3)cc2c1C (stereo not drawn)	–	–	–	–	89
CCN(CC)CCCNC(=O)c1oc2ccc(S(=O)(=O)N3CC(C)CC(C)C3)cc2c1C (stereo not drawn)	–	–	–	–	< 1
Cc1c(C(=O)NC2CC2)oc2ccc(S(=O)(=O)N3CC(C)CC(C)C3)cc12 (stereo not drawn)	–	–	–	–	83
Cc1c(C(=O)NC2CCCC2)oc2ccc(S(=O)(=O)N3CC(C)CC(C)C3)cc12 (stereo not drawn)	–	82	7400	90	95
CCN(CC)S(=O)(=O)c1ccc2oc(C(=O)N(C)Cc3ccccc3)c(C)c2c1	–	–	–	–	11
Cc1c(C(=O)N(C)CCc2ccccc2)oc2ccc(S(=O)(=O)N3CC(C)CC(C)C3)cc12 (stereo not drawn)	–	–	–	172	92
Cc1cccc(NC(=O)c2oc3ccc(S(=O)(=O)N4CC(C)CC(C)C4)cc3c2C)c1C (stereo not drawn)	–	–	–	–	84
CCCCNC(=O)c1oc2ccc(S(=O)(=O)N3CC(C)CC(C)C3)cc2c1C (stereo not drawn)	–	100	9400	94	92

Results, then the compound that gave them:

EC50 (Cannabinoid receptor 1 [1]) [nM]	Ratio Ki (Homo sapiens)	Ki (Cannabinoid receptor 2) [nM]	Ki (Cannabinoid receptor 1 [2]) [nM]	inhibition (Cannabinoid receptor 1 [3]) [%]	Structure (SMILES)
72.4	4560	22800	5	96	Cc1c(C(=O)NC2CCCc3ccccc32)oc2ccc(S(=O)(=O)N3CC(C)CC(C)C3)cc12 (stereo not drawn)
–	30	6000	198	92	Cc1c(C(=O)NCCc2ccccc2)oc2ccc(S(=O)(=O)N3CC(C)CC(C)C3)cc12 (stereo not drawn)
–	83	4800	58	95	Cc1c(C(=O)NCc2ccccc2Cl)oc2ccc(S(=O)(=O)N3CC(C)CC(C)C3)cc12 (stereo not drawn)
–	102	9900	97	96	CCOc1ccccc1CNC(=O)c1oc2ccc(S(=O)(=O)N3CC(C)CC(C)C3)cc2c1C (stereo not drawn)
–	86	6600	77	92	Cc1c(C(=O)NCc2ccccc2)oc2ccc(S(=O)(=O)N3CC(C)CC(C)C3)cc12 (stereo not drawn)
–	–	–	–	10	Cc1c(C(=O)NCc2ccccn2)oc2ccc(S(=O)(=O)N3CC(C)CC(C)C3)cc12 (stereo not drawn)
–	–	–	–	46	Cc1c(C(=O)NCc2cccnc2)oc2ccc(S(=O)(=O)N3CC(C)CC(C)C3)cc12 (stereo not drawn)
–	–	–	–	44	Cc1c(C(=O)Nc2ccccc2Cl)oc2ccc(S(=O)(=O)N3CC(C)CC(C)C3)cc12 (stereo not drawn)
–	–	–	–	70	Cc1c(C(=O)Nc2cccc(Cl)c2)oc2ccc(S(=O)(=O)N3CC(C)CC(C)C3)cc12 (stereo not drawn)
–	393	22800	58	97	COc1ccccc1CNC(=O)c1oc2ccc(S(=O)(=O)N3CC(C)CC(C)C3)cc2c1C (stereo not drawn)
–	65	4000	62	95	Cc1c(C(=O)NCc2ccc(F)cc2)oc2ccc(S(=O)(=O)N3CC(C)CC(C)C3)cc12 (stereo not drawn)

Source: ChEMBL document CHEMBL1142334, “Discovery of a novel class of selective human CB1 inverse agonists” (Bioorg Med Chem Lett, 2008)
